Test results: paper PMC5108032, “Discovery of a Quinoline-4-carboxamide Derivative with a Novel Mechanism of Action, Multistage Antimalarial Activity, and Potent in Vivo Efficacy” (Journal of Medicinal Chemistry, 2016)
Like-named read-outs stand apart in the source and are kept apart here. Blank lines part the entries; values can stand above or below the compound they belong to.

What was measured:
[1] = system: Pf (3D7); assay: Ligand efficiency metrics (LE, LLE, LELP), selectivity and fold changes; design: species or system Plasmodium falciparum; settings: for drop in potency: Pf (3D7), relative to the comparator compound of the sentence
[2] = system: MRC-5 cell line; assay: Mammalian cell growth inhibition counter-screen (resazurin); assay type: cell-based, human; settings: Homo sapiens, MRC5; supplementary csv; read-out: Hs MRC-5 EC50
Description: (§1) Plasmodium falciparum screening
(§2) Assays against P. falciparum were conducted as previously described.1 Cultures of the widely-used malaria reference strain of chloroquine-sensitive Plasmodium falciparum strain 3D7 were maintained in a 5% suspension of human red blood cells (obtained from East of Scotland Blood Transfusion Service, Ninewells Hospital, Dundee) cultured in RPMI 1640 medium (pH 7.3) supplemented with 0.5% Albumax II (Gibco Life Technologies, San Diego, CA), 12 mM sodium bicarbonate, 0.2 mM hypoxanthine and 20 mg/L gentamicin at 37°C, in a humidified atmosphere of 1% O 2, 3% CO2 with a balance of nitrogen. Growth inhibition was quantified using a fluorescence assay utilising the binding of SYBR green to double stranded DNA, which emits a fluorescent signal at 528 nm after excitation at 485nm.2 Mefloquine (potency range 30-60 nM) was used as a drug control to monitor the quality of the assay (Z’ = 0.6 to 0.8, Signal to background >3, where Z’ is a measure of the discrimination between the positive and negative controls on a screen plate). A 96-well [3H]-Hypoxanthine incorporation assay was also developed as a secondary assay in order to validate compounds from the initial screen in an orthogonal platform.3 Compound bioactivity from both assays was expressed as […]
(§3) P. falciparum (panel of resistant strains) in vitro assay. (Swiss TPH)
(§4) All Plasmodium strains were cultured according to Trager and Jensen and are described at www.beiresources.org (resistant strains: K1, W2, 7G8, TM90C2A, D6 and V1/S, sensitive strain:
(§5) NF54). EC50 values were determined in vitro by measuring incorporation of the nucleic acid precursor […]
(§6) Mammalian Cell Growth Inhibition assay
(§7) A counter-screen against normal diploid human fibroblasts (MRC-5 cell line) was carried out to exclude non-selective, and toxic compounds. The assay was essentially carried out as described previously.4 Cells were plated and incubated overnight to allow them to adhere as monolayers. A working stock of each test compound was transferred to an intermediate 384-well plate and pre-diluted with minimum essential media (MEM). The pre-diluted stocks were then transferred onto the cell monolayers, and the plates were incubated for 68 h. Resazurin, to a final concentration of 50 μM, was added to each well, after which plates were incubated for a further 3 h and measured for fluorescence (λex=528 nm, λem=590 nm)
(§8) In vitro Cell Assay Data Analysis.
(§9) All data was processed using IDBS ActivityBase® raw data was converted into per cent inhibition through linear regression by setting the high inhibition control as 100% and the no inhibition control as 0%. Quality control criteria for passing plates were as follows: Z’> 0.5, S:B> 3, %CV(no inhibition < 15 . The formula used to calculate Z’ is 1 3× (St D e v _ hi gh + St D e v _ low) . […]
(§10) All EC50 Curve fitting was undertaken using XLFit version 4.2 using Model 205 with the following 4 parametric equation: y = A + B A A + ($-&) ,where A=% inhibition at bottom, B=% […]
(§11) inhibition at top, C= EC50, D= slope, x= inhibitor concentration and y= % inhibition. […]
(§12) reach 100% of inhibition, B was fixed to 100 only when at least 50% of inhibition was reached.
(§13) Plasmodium falciparum late stage (IV-V) gametocyte high content imaging assay Plasmodium falciparum NF54-pfs16-LUC-GFP stage IV-V Gametocytes were produced as described previously.5 Compounds were solubilized in DMSO and serially diluted in three concentrations per log standard curves in DM SO. One µl of compound was subsequently diluted in 25µl of water (4% DMSO) and 5µl transferred into the base of 384 well PerkinElmer CellCarrier plates. Forty-five µl of stage IV-V gametocytes (10%P in 0.1%H) were added to the imaging plates which were in turn sealed with a gas permeable membrane and incubated at 37°C, 5% CO 2, 5% O2, 90% N2 and 60% humidity […]
(§14) Post incubation, 5µl of MitoTracker® Red CM -H2Xros (MTR) solution (0.66ug/ml) was added to all wells and the plates incubated for a further 16hours. […]

[3] = as above; assay type: cell-based, human; settings: human, MRC-5 cells (normal diploid human fibroblasts)
Description: as §1, §2, §3, §4, §5, §6, §7, §8, §9, §10, §11, §12, §13, §14

[4] = Intrinsic clearance (Cli) in mouse liver microsomes; assay type: in vitro ADME
Text: as §11, §12, §13
Post incubation, 5µl of MitoTracker® Red CM -H2Xros (MTR) solution (0.66ug/ml) was added to all wells and the plates incubated for a further 16hours. The assay plates were then imaged and the number of viable gametocytes determined for test compounds plus 0.4%DMSO and 5µM Puromycin.
(0.4%DMSO) control values. Percent inhibition was plotted against log compound concentration using a 4 parameter log dose, non-linear regression analysis, with sigmoidal dose response (variable slope) curve fit using Prizm 4.0. IC50 values were obtained from this curve fit. The compound testing was performed in duplicate point within two separate experiments.
Plasmodium berghei ookinete development assay
Assay was performed as previously reported.6 Briefly blood containing P. berghei CTRPp-GFP gametocytes was rapidly harvested from infected mice and introduced to test compounds pre-diluted in ookinete medium (to induce gamete formation and support ookinete development) in 96-well plates. Plates were incubated in the dark at 21°C for 22 hr before GFP fluorescence intensity measured in a plate reader. % inhibition of ookinete formation was calculated with reference to the fluorescence intensity values of a positive control (20 µM cycloheximide) and a solvent-only negative control (DMSO). All assays were performed in triplicate independent experiments and EC50 values calculated in Graphpad Prism.
The aqueous solubility of the test compounds was measured using laser nephelometry, as described previously.7 Compounds were subject to serial dilution from 10 mg/mL to 0.5 mg/mL in DMSO. An aliquot was then mixed with MilliQ water to obtain an aqueous dilution plate with a final concentration range of 100 – 5 μg/mL, with a final DMSO concentration of 1.0%. Triplicate aliquots were transferred to a flat bottomed polystyrene plate which was immediately read on the NEPHELOstar (BMG Lab Technologies). The amount of laser scatter caused by insoluble particulates (relative nephelometry units, RNU) was plotted against compound concentration using a segmental regression fit, with the point of inflection being quoted as the compounds aqueous solubility (μg/mL; […]
Intrinsic Clearance (Cli) experiments
The procedure was carried out as reported previously.7 Test compound (0.5 µM) was incubated with female CD1 mouse, male sprague-dawley rat or pooled human mixed gender liver microsomes (Xenotech LLC TM; 0.5 mg/mL 50 mM potassium phosphate buffer, pH 7.4) and the reaction initiated […]
by the addition of excess NADPH (8 mg/mL 50 mM potassium phosphate buffer, pH 7.4).
Immediately, at time zero, then at 3, 6, 9, 15 and 30 min an aliquot (50 μL) of the incubation mixture was removed and mixed with acetonitrile (100 μL) to stop the reaction. Internal standard was added to all samples, the samples centrifuged to sediment precipitated protein and the plates then sealed prior to UPLC-MS/MS analysis using a Quattro Premier XE (Waters Corporation, USA).
XLfit (IDBS, UK) was used to calculate the exponential decay and consequently the rate constant (k) from the ratio of peak area of test compound to internal standard at each timepoint. The rate of […]

[5] = system: Plasmodium falciparum strain 3D7; assay: Plasmodium falciparum screening, SYBR green growth inhibition; assay type: cell-based
Description: as §1, §2, §3, §4, §5, §6, §7, §8, §9, §10, §11, §12, §13, §14

[6] = system: P. berghei ANKA strain; assay: In vivo antimalarial efficacy in the P. berghei mouse model (Peter's test); design: species or system Plasmodium berghei in female NMRI mice; settings: 4 × 10 mg/kg oral, once daily; mice cured / mice in group
Description: Compound 41 was dosed as a bolus solution intravenously at 1 mg free base/kg (dose volume: 5 mL/kg; dose vehicle: 5% DMSO;saline) or by gavage orally as solution at 3 mg free base/kg (dose volume: 10 mL/kg; Dose vehicle: 0.5% w/v hydroxypropylmethylcellulose with 0.4% v/v Tween 80 and 0.5% v/v benzyl alcohol) to male Sprague Dawley rats (n=3/dose route). Blood samples were taken from each rat at 5, 15, 30 min, 1, 2, 4, 6, 8, 24 and 30 h post-dose, mixed with two volumes of distilled water and stored frozen until UPLC/MS/MS analysis.
Pharmacokinetic parameters were derived from the blood concentration time curve for each compound using PKsolutions software v 2.0 (Summit Research Services, USA).
In vivo antimalarial efficacy studies in P. berghei. (Swiss TPH)
In vivo efficacy was conducted as previously described10 with the modification that female NMRI mice (n = 3) were infected with a GFP-transfected P. berghei ANKA strain (donated by A. P. Waters and C. J. Janse, Leiden University, The Netherlands), and parasitaemia determined (96 h after infection) using standard flow cytometry techniques. Compounds 1, 25, 27, 30 and 49 were prepared in 10% DM SO, 40% PEG 400 and 50% water prior to administration orally, once daily for 4 days.
Compounds 40, 41, 43 and 44 were prepared in a non-solubilizing, standard suspension vehicle called HPMC (0.5% [wt/vol] hydroxypropylmethylcellulose, 0.5% [vol/vol] benzyl alcohol, 0.4% [vol/vol] Tween 80, and 0.9% [wt/vol] sodium chloride in water) prior to administration orally, once daily for 4 days. Blood samples were collected on day 4 (96 h after infection) in two volumes water. Animals […]
and then hourly up to 4 h after dosing each day. The animals were selected randomly for each group

[7] = 3D7, supplementary csv, read-out: Pf (3D7) EC50

LLE (ligand-lipophilicity efficiency) [1]: 2.6
Compound: Cc1ccc(-c2cc(C(=O)Nc3cccnc3)c3cc(Br)ccc3n2)cc1 [Compound 1]

Compound: Cc1ccc(-c2cc(C(=O)NCCCN(C)C)c3cc(Cl)ccc3n2)cc1 [Compound 14, 6-Chloro-N-(3-(dimethylamino)propyl)-2-(p-tolyl)quinoline-4-carboxamide]
EC50 [2]: 5.55 µM

Compound: Cc1ccc(-c2cc(C(=O)NCCN3CCCCC3)c3cc(Cl)ccc3n2)cc1 [Compound 17]
EC50 [2]: 7.4 µM

LLE (ligand-lipophilicity efficiency) [1]: 3.2
Compound: Cc1ccc(-c2cc(C(=O)NCCN3CCCC3)c3cc(F)ccc3n2)cc1 [Compound 19]

Compound: Cc1cc(Nc2cc(C(=O)NCCN3CCCC3)c3cc(F)ccc3n2)on1 [Compound 20]
EC50 at 68 h [3]: > 50 µM

Compound: O=C(NCCN1CCCC1)c1cc(N2CCn3ccnc3C2)nc2ccc(F)cc12 [Compound 22, 2-(5,6-Dihydroimidazo[1,2-a]pyrazine-7(8H)-yl)-6-fluoro-N-(2-(pyrrolidin-1-yl)ethyl)quinoline-4-carboxamide]
EC50 at 68 h [3]: > 50 µM

LLE (ligand-lipophilicity efficiency) [1]: 4.2
Compound: O=C(NCCN1CCCC1)c1cc(N2CCC(N3CCOCC3)CC2)nc2ccc(Cl)cc12 [Compound 24, 6-Chloro-2-(4-morpholinopiperidin-1-yl)-N-(2-(pyrrolidin-1-yl)ethyl)quinoline-4-carboxamide]

MLM Cli ([4]; mouse liver microsomes): < 0.5 mL/min/g
Compound: O=C(NCCN1CCCC1)c1cc(NCCN2CCOCC2)nc2ccc(F)cc12 [Compound 26, 6-Fluoro-2-((3-morpholinoethyl)amino)-N-(2-(pyrrolidin-1-yl)ethyl)quinoline-4-carboxamide]

Compound: O=C(NCCN1CCC(F)CC1)c1cc(NCCCN2CCOCC2)nc2ccc(F)cc12 [Compound 31]
EC50 [2]: 40.9 µM

Compound: O=C(NCCN1CCOCC1)c1cc(NCCCN2CCOCC2)nc2ccc(F)cc12 [Compound 32]
EC50 [2]: > 50 µM

Compound: O=C(NCCN1CCC(F)(F)CC1)c1cc(NCCCN2CCOCC2)nc2ccc(F)cc12 [Compound 33]
EC50 [2]: > 50 µM

Compound: O=C(NCCN1CCCC(F)(F)C1)c1cc(NCCCN2CCOCC2)nc2ccc(F)cc12 [Compound 34]
EC50 [2]: > 50 µM

Compound: O=C(NCCN1CCC(F)(F)C1)c1cc(NCCCN2CCOCC2)nc2ccc(F)cc12 [Compound 35]
EC50 [2]: > 50 µM

Compound: O=C(NCCN1CCCC1)c1cc(-c2ccc(C(=O)N3CCOCC3)cc2)nc2ccc(F)cc12 [Compound 39, 6-Fluoro-2-(4-(morpholine-4-carbonyl)phenyl)-N-(2-(pyrrolidin-1-yl)ethyl)quinoline-4-carboxamide]
EC50 at 68 h [3]: > 50 µM

EC50 [5, 7]: 10.4 µM
Compound: O=C(NCCN1CCCC1)c1cc(-c2cccc(CN3CCOCC3)c2)nc2ccc(F)cc12 [Compound 45]

MLM Cli ([4]; mouse liver microsome): <0.5 mL min^–1 g^–1
Compound: O=C(NCCN1CCOCC1)c1cc(-c2ccc(CN3CCOCC3)cc2)nc2ccc(F)cc12 [Compound 46]
drop in potency [1]: 12 fold

MLM Cli ([4]; mouse liver microsome): <0.5 mL min^–1 g^–1
Compound: CN(CCN1CCCC1)C(=O)c1cc(-c2ccc(CN3CCOCC3)cc2)nc2ccc(F)cc12 [Compound 47, 6-Fluoro-N-methyl-2-(4-(morpholinomethyl)phenyl)-N-(2-(pyrrolidin-1-yl)ethyl)quinoline-4-carboxamide]
drop in potency [1]: 87 fold

EC50 [5, 7]: 0.0024 µM
MLM Cli ([4]; mouse liver microsome): 2 mL min^–1 g^–1
Compound: O=C(NCCNC1CC1)c1cc(-c2ccc(CN3CCOCC3)cc2)nc2ccc(F)cc12 [Compound 48, N-(2-(Cyclopropylamino)ethyl)-6-fluoro-2-(4-(morpholinomethyl)phenyl)quinoline-4-carboxamide]

Compound: O=C(NCCN1CCC1)c1cc(-c2ccc(CN3CCOCC3)cc2)nc2ccc(F)cc12 [Compound 49, N-(2-(Azetidin-1-yl)ethyl)-6-fluoro-2-(4-(morpholinomethyl)phenyl)quinoline-4-carboxamide]
MLM Cli ([4]; mouse liver microsome): 0.5 mL min^–1 g^–1
cure [6]: 1/3

EC50 ([5]; 3D7, quality control of the assay, read-out: potency range (drug control)): 0.03 to 0.06 µM
Compound: OC(c1cc(C(F)(F)F)nc2c(C(F)(F)F)cccc12)C1CCCCN1 (stereo not drawn) [Mefloquine, reference compound]
